Assay results taken from patent publication US8729271B2, “Glycine transporter inhibiting substances” (Taisho Pharmaceutical Co., Ltd, priority 2010, dated 2014).
Several values for one entry are separate records, joined by “and”; a condition that tells them apart may be missing. Equal values may be shown once.

How the values were obtained:
[1] = molecular target: T1, P-glycoprotein (P-gp), Human MDR1 (Homo sapiens, UniProt P08183); test: Test for recognizability of P-gp substrate (LLC-GAS-COL 300 cells, Transwell); type: in vitro ADME; details: 10 μM; LLC-GAS-COL 300 cells (Human MDR1 in LLC-PK1); criteria of Nature Reviews Drug Discovery (2010) 9, 215-236
T1 construct: expressed in transfected cells; host or cells: LLC-GAS-COL 300 cells (derived from pig kidney LLC-PK1)
T1 sequence (P08183 whole entry): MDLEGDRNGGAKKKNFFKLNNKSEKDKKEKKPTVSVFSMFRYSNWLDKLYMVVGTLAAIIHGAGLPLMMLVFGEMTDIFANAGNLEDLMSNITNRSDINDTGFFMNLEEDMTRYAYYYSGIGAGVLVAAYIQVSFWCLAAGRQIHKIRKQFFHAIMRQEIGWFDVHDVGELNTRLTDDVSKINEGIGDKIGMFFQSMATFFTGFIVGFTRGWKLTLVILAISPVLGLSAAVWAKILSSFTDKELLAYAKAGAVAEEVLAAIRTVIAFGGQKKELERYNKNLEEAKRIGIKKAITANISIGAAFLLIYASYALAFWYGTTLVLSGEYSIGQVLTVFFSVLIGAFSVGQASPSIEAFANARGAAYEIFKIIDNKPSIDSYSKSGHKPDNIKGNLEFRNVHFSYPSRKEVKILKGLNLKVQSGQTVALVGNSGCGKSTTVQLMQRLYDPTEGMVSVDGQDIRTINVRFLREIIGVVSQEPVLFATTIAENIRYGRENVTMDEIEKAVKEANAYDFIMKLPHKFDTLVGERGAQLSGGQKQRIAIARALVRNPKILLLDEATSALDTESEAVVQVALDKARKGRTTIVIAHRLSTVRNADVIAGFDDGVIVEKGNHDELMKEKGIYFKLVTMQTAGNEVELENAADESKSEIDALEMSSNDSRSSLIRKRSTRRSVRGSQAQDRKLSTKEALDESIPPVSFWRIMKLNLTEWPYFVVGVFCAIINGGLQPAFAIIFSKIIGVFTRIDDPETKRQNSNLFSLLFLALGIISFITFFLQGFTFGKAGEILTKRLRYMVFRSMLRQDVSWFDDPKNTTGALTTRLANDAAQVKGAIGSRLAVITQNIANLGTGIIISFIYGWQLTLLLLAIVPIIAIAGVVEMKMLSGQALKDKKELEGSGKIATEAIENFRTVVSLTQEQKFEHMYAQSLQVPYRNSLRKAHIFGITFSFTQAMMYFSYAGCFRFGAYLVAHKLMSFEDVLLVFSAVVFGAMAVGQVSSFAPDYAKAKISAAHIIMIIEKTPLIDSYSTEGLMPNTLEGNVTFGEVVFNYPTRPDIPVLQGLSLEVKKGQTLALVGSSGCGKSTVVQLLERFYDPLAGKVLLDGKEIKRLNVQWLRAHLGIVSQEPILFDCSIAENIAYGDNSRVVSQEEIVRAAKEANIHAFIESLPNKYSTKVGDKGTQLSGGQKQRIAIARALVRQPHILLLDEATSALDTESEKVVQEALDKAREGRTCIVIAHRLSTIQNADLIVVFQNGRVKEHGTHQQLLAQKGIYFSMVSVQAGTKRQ
Description: In order that drugs acting on the central nervous system will develop their efficacy, their passage from the blood to the brain is generally important. While various efflux transporters are present at the blood-brain barrier to control this passage of drugs, P-glylcoprotein (P-gp) is a typical example and inhibits the passage to the brain of any drugs that serve as the substrate for P-gp. Therefore, in the development of pharmaceuticals, nonrecognizability of a candidate drug as the substrate for P-gp is the key to its passage to the brain.
A test for recognizability of P-gp substrate was performed in accordance with a modified version of the methods described in J Pharmacol. Exp. Ther. (1992) Vol. 263, No. 2, 840-845 and J Biol. Chem. (1992) Vol. 267, No. 34, 24248-24252. To be more specific, LLC-GAS-COL 300 cells (Human MDR1 expressing system derived from pig kidney derived, cultured renal epithelial cell line LLC-PK1) were cultured for 4 days on a Transwell and replaced by a Hank's balanced salt solution (HBSS) in each well just before the test. A solution of an assay compound (a DMSO solution of the compound as diluted with HBSS and adjusted to a final concentration of 10 μM) was added to the donor side of the LLC-GAS-COL 300 cells and a prescribed amount of HBSS was collected from the acceptor side at given time intervals and the concentration of the assay compound in the collected sample was measured by LC-MS/MS.
From the cumulative amount of the compound's permeation into the acceptor, the membrane permeability coefficient (×10^−6 cm/sec) was calculated for each of apical→basal mode and basal→apical mode and the recognizability of P-gp substrate was assessed in terms of the ratio between the two modes (efflux ratio).

[2] = molecular target: T2, human type 1 glycine transporter (GlyT1) (Homo sapiens, UniProt P48067); test: Glycine uptake inhibition experiment ([3H]glycine uptake in T98G cells); type: cell-based; details: T98G glioma cells; [3H]glycine 250 nM; 10-min pretreatment; 15 min at room temperature; read-out: glycine uptake inhibiting activity (IC50)
T2 construct: Used in the experiment were T98G cells (glioma cells) developing a human type 1 glycine transporter of (GlyT1); endogenous in cells; host or cells: T98G human glioma cells
T2 sequence (P48067 1-706): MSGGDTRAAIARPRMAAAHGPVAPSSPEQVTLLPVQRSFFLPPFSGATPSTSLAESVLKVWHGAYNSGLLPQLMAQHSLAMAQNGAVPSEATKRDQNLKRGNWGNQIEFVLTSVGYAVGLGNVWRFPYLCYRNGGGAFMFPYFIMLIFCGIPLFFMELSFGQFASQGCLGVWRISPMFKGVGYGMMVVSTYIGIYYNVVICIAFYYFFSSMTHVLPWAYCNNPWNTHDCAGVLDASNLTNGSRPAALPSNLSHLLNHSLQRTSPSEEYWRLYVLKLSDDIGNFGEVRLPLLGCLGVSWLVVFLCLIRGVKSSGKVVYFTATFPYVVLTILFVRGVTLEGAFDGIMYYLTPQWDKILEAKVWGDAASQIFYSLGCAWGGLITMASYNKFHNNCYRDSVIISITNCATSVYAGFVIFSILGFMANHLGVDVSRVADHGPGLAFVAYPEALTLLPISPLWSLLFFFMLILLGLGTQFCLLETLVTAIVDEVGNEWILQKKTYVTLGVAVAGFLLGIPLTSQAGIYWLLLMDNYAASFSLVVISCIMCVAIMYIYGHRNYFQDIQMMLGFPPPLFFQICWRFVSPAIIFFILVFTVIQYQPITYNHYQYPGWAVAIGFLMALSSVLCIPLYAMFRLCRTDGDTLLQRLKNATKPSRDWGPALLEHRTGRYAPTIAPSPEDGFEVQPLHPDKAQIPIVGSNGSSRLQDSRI
Experimental: A glycine uptake inhibition experiment was conducted in accordance with the method described in Neuron, 8, 927-935, 1992. Used in the experiment were T98G cells (glioma cells) developing a human type 1 glycine transporter of (GlyT1). The T98G cells were seeded in a 96-well plate at a density of 2.0×10^4 cells per well and cultured overnight in a CO2 incubator. The test substance was first dissolved in a 100% DMSO solution and then dissolved in a 10 mM HEPES buffer solution (pH 7.4) supplemented with 150 mM sodium chloride, 1 mM calcium chloride, 5 mM potassium chloride, 1 mM magnesium chloride, 10 mM glucose, and 0.2% bovine serum albumin. After removing the cell culture medium, the test substance was subjected to a 10-min pretreatment. Thereafter, the test substance and [^3H] glycine (final concentration: 250 nM) were added to the cells and reaction was performed at room temperature for 15 minutes. After the end of the reaction, the extracellular fluid was aspirated with a manifold to remove the excess marker glycine present outside of the cells; thereafter, the cells were lysed with an aqueous solution of 0.5 M sodium hydroxide. The glycine content in the cells was determined by measuring the radioactivity in the cell lysate with a liquid scintillation counter. With the amount of glycine uptake in the presence of 10 μM ALX5407 being referred to as the nonspecific uptake, the amount of specific uptake was calculated by subtracting the amount of nonspecific uptake from the total amount of uptake in the absence of 10 μM ALX5407. In addition, glycine uptake inhibiting activity (IC50) was calculated from an inhibition curve for the concentration of the test substance ranging from 10^−9 to 10^−5 M.
It should be noted that ALX5407 is a HCl salt of N-[(3R)-3-([1,1′-biphenyl]-4-yloxy)-3-(4-fluorophenyl)propyl]-N-methylglycine.
Incidentally, Compound 56 which is recited as 2HCl salt in the above Table 1-6 was subjected to measurement as its free form in the Glycine Uptake Inhibition Experiment.

Compound	IC50 [2]	recognizability as P-gp substrate (from efflux ratio basal→apical / apical→basal) [1]
Cc1n[nH]c(C)c1-c1cc(CN(C(=O)c2cn(C)cn2)C(C)C)ccc1F [Compound 25]	≥ 1000 nM	
Cc1cn(-c2cc(CN(C(=O)c3cn(C)cn3)C(C)C)ccc2F)c(C)n1 [Compound 132]	≥ 1000 nM	
CCn1cnc(C(=O)N(Cc2ccnc(-c3ccc(F)cc3)c2)C(C)C)c1 [Compound 56]		not recognizable as the substrate for P-gp
CC(C)N(Cc1ccnc(-c2ccc(Cl)cc2)c1)C(=O)c1cn(C)cn1 [Compound 69]		not recognizable as the substrate for P-gp
CC(C)N(Cc1ccnc(-c2cc(F)cc(F)c2)c1)C(=O)c1cn(C)cn1 [Compound 62]		not recognizable as the substrate for P-gp
CC(C)N(Cc1ccc(F)c(-c2ccc(F)nc2)c1)C(=O)c1cn(C)cn1 [Compound 9]		not recognizable as the substrate for P-gp
Cc1cnn(-c2cc(CN(C(=O)c3cn(C)cn3)C(C)C)ccc2F)c1 [Compound 121]	160 nM	
CC(C)N(Cc1ccc(F)c(-n2ccnc2)c1)C(=O)c1cn(C)cn1 [Compound 74]	15 nM	
COCCN(Cc1ccnc(-c2cccc(OC(F)(F)F)c2)c1)C(=O)c1cn(C)cn1 [Compound 198]		not recognizable as the substrate for P-gp
CC(C)N(Cc1ccnc(-c2ccccc2)c1)C(=O)c1cn(C)cn1 [Compound 36]		not recognizable as the substrate for P-gp
CC(C)N(Cc1ccnc(-c2ccc(F)cc2)c1)C(=O)c1cn(C)cn1 [Compound 31]		not recognizable as the substrate for P-gp
CC(C)CN(Cc1ccnc(-c2ccc(F)cc2)c1)C(=O)c1cn(C)cn1 [Compound 54]		not recognizable as the substrate for P-gp
CC(C)N(Cc1ccc(F)c(-c2cncc(F)c2)c1)C(=O)c1cn(C)cn1 [Compound 15]		not recognizable as the substrate for P-gp
CC(C)N(Cc1ccc(F)c(-n2cccn2)c1)C(=O)c1cn(C)cn1 [Compound 73]		not recognizable as the substrate for P-gp
CC(C)N(Cc1ccnc(-c2ccc(OC(F)F)cc2)c1)C(=O)c1cn(C)cn1 [Compound 124]		not recognizable as the substrate for P-gp
CC(C)N(Cc1ccc(F)c(-c2ccc(F)nc2)c1)C(=O)c1c[nH]cn1 [Compound 141]	≥ 1000 nM	
CN(C)c1ccc(-c2cc(CN(C(=O)c3cn(C)cn3)C3CCC3)ccc2F)cn1 [Compound 158]		not recognizable as the substrate for P-gp

Continued, in another order:

IC50 [2]	Compound	recognizability as P-gp substrate (from efflux ratio basal→apical / apical→basal) [1]
7.3 nM	CC(C)N(Cc1ccnc(-c2ccc(OC(F)(F)F)cc2)c1)C(=O)c1cn(C)cn1 [Compound 30]	not recognizable as the substrate for P-gp
18 nM	CC(C)N(Cc1ccc(F)c(-c2ccccn2)c1)C(=O)c1cn(C)cn1 [Compound 14]	not recognizable as the substrate for P-gp
30 nM	CC(c1ccnc(-c2ccc(F)cc2)c1)N(C(=O)c1cn(C)cn1)C1CCC1 (stereo not drawn) [Compound 153]	
≥ 1000 nM and 1400 nM	CCCN(Cc1cc(-c2ccccc2)ccn1)C(=O)c1cn(C)cn1 [Compound 5]	
8 nM	Cn1cnc(C(=O)N(Cc2ccc(F)c(-c3ccc(F)nc3)c2)C2CCC2)c1 [Compound 120]	
330 nM	Cn1cnc(C(=O)N(Cc2nc(-c3ccc(OC(F)(F)F)cc3)no2)C2CCC2)c1 [Compound 160]	
≥ 1000 nM	CC(C)N(Cc1ccnc(-c2ccc(OC(F)(F)F)cc2)c1)C(=O)c1c[nH]cn1 [Compound 146]	
3.7 nM	Cn1cnc(C(=O)N(Cc2ccnc(-c3ccc(F)c(OC(F)F)c3)c2)C2CCC2)c1 [Compound 213]	
≥ 1000 nM	CC(C)N(Cc1ccnc(-c2cc(F)ccc2C(F)(F)F)c1)C(=O)c1cn(C)cn1 [Compound 137]	
≥ 1000 nM	Cn1cnc(C(=O)N(CCC(F)(F)F)Cc2ccnc(-c3ccc(F)cc3)c2)c1 [Compound 52]	
14 nM	Cn1cnc(C(=O)N(Cc2ccc(F)c(-c3cc(C(F)(F)F)ncn3)c2)C2CCC2)c1 [Compound 208]	
16 nM	Cn1cnc(C(=O)N(Cc2ccnc(-c3cc(F)c(F)cc3F)c2)C2CCC2)c1 [Compound 191]	
64 nM	Cc1cn(-c2cc(CN(C(=O)c3cn(C)cn3)C(C)C)ccc2F)cn1 [Compound 143]	
5.8 nM	Cn1cnc(C(=O)N(Cc2csc(-c3ccc(OC(F)(F)F)cc3)n2)C2CCC2)c1 [Compound 155]	
≥ 1000 nM	CC(C)N(Cc1noc(-c2ccc(Cl)cc2)n1)C(=O)c1cn(C)cn1 [Compound 138]	
3.5 nM	Cn1cnc(C(=O)N(Cc2ccnc(-c3ccc(OC(F)(F)F)cc3)c2)C2CCC2)c1 [Compound 107]	
≥ 1000 nM	Cc1cccc(C)c1-c1cc(CN(C(=O)c2cn(C)cn2)C(C)C)ccn1 [Compound 63]	
≥ 1000 nM	Cn1cnc(C(=O)N(Cc2ccc(F)c(-c3cccnc3C(F)(F)F)c2)C2CCOCC2)c1 [Compound 168]	
12 nM	Cn1cnc(C(=O)N(Cc2ccc(F)c(-c3ccc(N4CCCC4)nc3)c2)C2CCC2)c1 [Compound 161]	
≥ 1000 nM	CC(C)N(Cc1ccc(F)c(-c2cccc3ncccc23)c1)C(=O)c1cn(C)cn1 [Compound 24]	
≥ 1000 nM	CC(C)N(Cc1ccnc(-c2ccc(F)cc2)c1)C(=O)c1c[nH]cn1 [Compound 42]	
≥ 1000 nM	CC(C)N(Cc1ccc(F)c(-c2ncc[nH]2)c1)C(=O)c1cn(C)cn1 [Compound 29]	
≥ 1000 nM	CC(C)N(Cc1ccnc(-c2ccccc2OC(F)(F)F)c1)C(=O)c1cn(C)cn1 [Compound 111]	
